Laboratory results: article PMC8284453 (Antimicrobial Agents and Chemotherapy, 2021)
Read-outs that look alike come from different tables or passages of the source.

Experiments:
CTX-M-15 [1] = target: T1, CTX-M-15 (Escherichia coli, UniProt Q9EXV5); assay: IC50 determination against purified β-lactamase; type: biochemical; set-up: made in house; host or cells: E. coli BL21(DE3), plasmid pET-CTX-M-15 (pET9a)
Experimental: (§1) An equal volume of enzyme was added (assay concentrations, 0.6 nM P99AmpC, 21 nM CTX-M-15, 3 nM KPC-2, 100 nM SHV-5), and the mixtures were preincubated for 15 min at 37°C. For AmpC, nitrocefin was then added to obtain a final concentration of 100 μM, and the absorbance at a wavelength (λ) of 486 nm (representing hydrolysis of the nitrocefin β-lactam ring) was monitored immediately using a BioTek Powerwave XS2 microplate reader. In similar fashion, using UV-transparent 96-well microtiter plates, hydrolysis of imipenem (100 μM) by KPC-2 was monitored at λ 300 nm, while cefotaxime (100 μM) hydrolysis by CTX-M-15 and SHV-5 was monitored at λ 300 nm. Assays were performed in duplicate, and the percentage inhibition relative to reaction mixtures containing no inhibitor were determined for each concentration of inhibitor.

OXA-1 = target: T2, OXA-1 (Escherichia coli, UniProt P13661); assay: IC50 determination against purified β-lactamase; type: biochemical; conditions: substrate nitrocefin; mean from duplicate measurements
T2 construct: made in house; host or cells: E. coli BL21(DE3), pET9a

CMY-2 = target: T3, CMY-2 (Klebsiella pneumoniae, UniProt Q48434); assay: IC50 determination against purified β-lactamase; type: biochemical
T3 construct: made in house; host or cells: E. coli BL21(DE3), pET9a

P99AmpC [2] = target: T4, P99AmpC (Enterobacter cloacae, UniProt P05364); assay: IC50 determination against purified β-lactamase; type: biochemical; set-up: P99AmpC was purified directly from the Enterobacter cloacae P99 clinical isolate; made in house; host or cells: Enterobacter cloacae P99 (native producer, induced with sub-MIC imipenem); conditions: substrate nitrocefin; mean from duplicate measurements
Experimental: as §1

[3] = system: four strains of Gram-positive organisms or nine strains of Gram-negative bacilli; assay: Stand-alone antibacterial activity; type: cell-based; conditions: all MICs
[4] = target: T5, protein serine/threonine phosphatase, PPP3CA (calcineurin PP2B) (Homo sapiens, UniProt Q08209); assay: DrugMatrixScreen selectivity panel; type: biochemical; conditions: screening concentration of 100 μM
T5 construct: Eurofins/Panlabs (DrugMatrixScreen, contract assay)
Experimental: (§2) Binding, enzymatic, and uptake assays representing a wide range of cellular and subcellular target classes were performed. […] The in vivo significance of these in vitro activities is not known.
(§3) The selectivity of VNRX-5236 was assessed in the DrugMatrixScreen at Eurofins Discovery Services. This screen encompasses 123 mammalian receptor and enzyme classes (and a single prokaryotic target, a β-lactamase) that can be used to assess the potential off-target activities of development candidates ([34]).

[5] = target: T6, protein tyrosine kinase Fyn (Homo sapiens, UniProt P06241); assay: DrugMatrixScreen selectivity panel; type: biochemical; conditions: screening concentration of 100 μM
T6 construct: Eurofins/Panlabs (DrugMatrixScreen, contract assay)
Experimental: as §2, §3

SHV-5 = target: T7, SHV-5 (Klebsiella pneumoniae, UniProt P0A3M1); assay: biochemical; type: biochemical
T7 construct: made in house; host or cells: E. coli BL21(DE3)/pLysS, plasmid pET-SHV-5 (pET9a)

[6] = system: serine β-lactamases (CTX-M-15, SHV-5, KPC-2, P99AmpC); assay: Kinetic parameters, summary across enzymes; type: biochemical; conditions: range across the four enzymes
KPC-2 [7] = target: T8, KPC-2 (Klebsiella pneumoniae, UniProt Q9F663); assay: IC50 determination against purified β-lactamase; type: biochemical; set-up: made in house; host or cells: E. coli BL21(DE3), plasmid pET-KPC-2 (pET9a); conditions: substrate imipenem; mean from duplicate measurements
Experimental: as §1

HeLa = assay: Mammalian cell cytotoxicity; type: cell-based; conditions: dividing cell cultures
Experimental: (§4) Mammalian cell cytotoxicity. Cytotoxicity evaluations were conducted on actively dividing cells to maximize assay sensitivity. Procedurally, 180 μl of cells were seeded in cell-culture-treated 96-well plates (Celltreat, Pepperell, MA) at a density of 2 × 10^4 to 3.5 × 10^4 cells/ml and incubated overnight at 37°C in a humidified, 5% CO2 atmosphere. The next day, compound was diluted in PBS with 6% DMSO in a 0.5 log10 dilution scheme at 10 times the final compound concentration array. […] The cytotoxic agent chlorohexidine was assayed as a positive control at compound concentrations ranging from 0.31 to 100 μg/ml. The final DMSO concentration in all assays was 0.6%.
(§5) After an additional 72 h of incubation (when cells reached 90 to 100% confluence) Cell Titer 96 AQ solution was added at 20 μl per well, and plates were incubated an additional 2 to 4 h at 37°C and 5% CO2. The optical density of the wells was read on a Biotek Cytation 3 plate reader at 490 nm. Background signal (wells receiving Cell Titer reagent but containing no cells) was subtracted from all wells on the plate. […] Experiments were run in triplicate with data from all three trials included in the data analysis.

3T3 = assay: Mammalian cell cytotoxicity; type: cell-based; conditions: dividing cell cultures
Experimental: as §4, §5

MRC-5 = assay: Mammalian cell cytotoxicity; type: cell-based; conditions: dividing cell cultures
Experimental: as §4, §5

P99AmpC [8] = target: T4, P99AmpC; assay: Kinetic parameters of reversible inactivation
CTX-M-15 [9] = target: T1, CTX-M-15; assay: biochemical
KPC-2 [10] = target: T8, KPC-2; assay: biochemical
[11] = set-up: method as in earlier work; conditions: cited from earlier work
[12] = DrugMatrixScreen selectivity panel; conditions: 10 μM; 129 in vitro assays
Experimental: as §2, §3

[13] = half-life of active site occupancy

Q: Which results are given for `NC(=O)[C@@H]1CC[C@@H]2CN1C(=O)N2OS(=O)(=O)O` [Avibactam, avibactam]?
A: IC50 (CTX-M-15 [1]; substrate cefotaxime, mean from duplicate measurements, read-out: IC50): 3 nM; IC50 (OXA-1): 40 nM; IC50 (CMY-2; substrate nitrocefin, mean from duplicate measurements, read-out: IC50): 7 nM; IC50 (P99AmpC [2]): 20 nM

Q: Which IC50 (CTX-M-15 [1]) does the source give for `CCC(=O)N[C@H]1Cc2cccc(C(=O)O)c2OB1O` [VNRX-5236] here?
A: 20 nM

Q: And the MIC [3]?
A: ≥ 128 µg/mL

Q: And the IC50 (OXA-1)?
A: 70 nM

Q: And the inhibition at 100 µM [4]?
A: 56%

Q: What about the inhibition at 100 µM [5] of the same compound?
A: 77%

Q: What about the Ki (SHV-5) of the same compound?
A: 40 nM

Q: What about the “k−2” value (SHV-5; off rate, jump dilution) of the same compound?
A: 12.7 ± 0.07 10^−4 s^−1

Q: What about the “Dissociation rates (k-2)” value [6] of the same compound?
A: 2.5 to 24 10^−4 s^−1

Q: And the Ki [6]?
A: 10 to 110 nM

Q: And the IC50 (CMY-2)?
A: 10 nM

Q: What about the IC50 (KPC-2 [7]) of the same compound?
A: 80 nM

Q: And the “noncytotoxic up to the highest concentration tested” value (shortened to “noncytotoxic up”) (HeLa)?
A: > 1 mg/mL

Q: What about the “noncytotoxic up” value (3T3) of the same compound?
A: > 1 mg/mL

Q: What about the “noncytotoxic up” value (MRC-5) of the same compound?
A: > 1 mg/mL

Q: And the t1/2 (P99AmpC [8]; [13])?
A: 5 ± 0.1 min

Q: And the “k−2” value (P99AmpC [8]; off rate, jump dilution)?
A: 24 ± 0.5 10^−4 s^−1

Q: And the Ki (CTX-M-15 [9])?
A: 10 nM

Q: What about the t1/2 (CTX-M-15 [9]; [13]) of the same compound?
A: 26 ± 0.6 min

Q: What about the “k−2” value (CTX-M-15 [9]; off rate, jump dilution) of the same compound?
A: 4.5 ± 0.1 10^−4 s^−1

Q: And the Ki (KPC-2 [10])?
A: 110 nM

Q: And the t1/2 (KPC-2 [10]; [13])?
A: 46 ± 2 min

Q: And the “k−2” value (KPC-2 [10]; off rate, jump dilution)?
A: 2.5 ± 0.1 10^−4 s^−1

Q: For `CCC(=O)N[C@H]1Cc2cccc(C(=O)OCOC(=O)C(CC)CC)c2OB1O` [VNRX-7145], which MIC [3] is on record?
A: ≥ 128 µg/mL

Q: And the “levels of circulating VNRX-7145” value ([11]; all PK time points)?
A: exceedingly low

Q: And the oral bioavailability ([11]; rats, dogs, and monkeys)?
A: high oral bioavailability

Q: And the “noncytotoxic up” value (3T3)?
A: > 0.128 mg/mL

Q: And the “noncytotoxic up” value (MRC-5)?
A: > 0.128 mg/mL

Q: And the off-target findings [12]?
A: no notable off-target findings
